Laboratory results from patent US20240279239A1, “COMPOUNDS AND METHODS FOR MODULATING SPLICING” (REMIX THERAPEUTICS INC., priority 2020, published 2024).
Read-outs that look alike come from different tables or passages of the source.

Key:
Type in all cases: cell-based
HTT [1] = test: RT-qPCR canonical junction panel assay, HTT; conditions: gene panel, read-out: HTT IC50 (decrease in CJ mRNA levels)
Procedure: (§1) Example 44: Exemplary splicing assay for monitoring expression levels of splice variants Compounds described herein were used to modulate RNA transcript abundance in cells. The expression of a target mRNA was measured by detecting the formation of an exon-exon junction in the canonical transcript (CJ). A compound mediated exon-inclusion event was detected by observing an increase in formation of a new junction with an alternative exon (AJ). Real-time qPCR assays were used to detect these splicing switches and interrogate the potency of various compounds towards different target genes. A high-throughput real time quantitative PCR (RT-qPCR) assay was developed to measure these two isoforms of the mRNA (CJ and AJ) for an exemplary gene, HTT, together with a control housekeeping gene, GAPDH or GUSB or PPIA, used for normalization. Briefly, the A673 or K562 cell line was treated with various compounds described herein (e.g., compounds of Formula (I)). After treatment, the levels of the HTT mRNA targets were determined from each sample of cell lysate by cDNA synthesis followed by qPCR.
(§2) The A673 cell line was cultured in DMEM with 10% FBS. Cells were diluted with full growth media and plated in a 96-well plate (15,000 cells in 100 µl media per well). The plate was incubated at 37° C. with 5% CO2 for 24 hours to allow cells to adhere. An 11-point 3-fold serial dilution of the compounds was made in DMSO then diluted in media in an intermediate plate. Compounds were transferred from the intermediate plate to the cell plate with the top dose at a final concentration of 10 uM in the well. Final DMSO concentration was kept at or below 0.25%. The cell plate was returned to the incubator at 37° C. with 5% CO2 for an additional 24 hours.
(§3) The K562 cell line was cultured in IMDM with 10% FBS. For K562, cells were diluted with full growth media and plated in either a 96-well plate (50,000 cells in 50 uL media per well) or a 384-well plate (8,000-40,000 cells in 45 uL media per well). An 11-point 3-fold serial dilution of the compounds were made in DMSO then diluted in media in an intermediate plate. Compound was transferred from the intermediate plate to the cell plate with the top dose at a final concentration of 10 uM in the well. Final DMSO concentration was kept at or below 0.25%. Final volume was 100 uL for 96-well plate and 50 uL for 384-well plate. The cell plate was then placed in an incubator at 37° C. with 5% CO2 for 24 hours.
(§4) The cells were then gently washed with 50 uL-100 uL cold PBS before proceeding to addition of lysis buffer. 30 uL-50 uL of room temperature lysis buffer with DNAse I (and optionally RNAsin) was added to each well. Cells were shaken/mixed thoroughly at room temperature for 5-10 minutes for lysis to take place and then 3 uL-5 uL of room temperature stop solution was added and wells were shaken/mixed again. After 2-5 minutes, the cell lysate plate was transferred to ice for RT-qPCR reaction setup. The lysates could also be frozen at ˜80° C. for later use.
(§5) In some cases, a direct lysis buffer was used. An appropriate volume of 3× lysis buffer (10 mM Tris, 150 mM NaCl, 1.5%-2.5% Igepal and 0.1-1 U/uL RNAsin, pH 7.4) was directly added to either K562 or A673 cells in media and mixed by pipetting 3 times. The plates were then incubated at room temperature with shaking/rocking for 20-50 minutes to allow for lysis to take place. After this time, the cell lysate plate was transferred to ice to set up for the RT-qPCR reactions. The lysates could also be frozen at −80° C. for later use.
(§6) To set up 10 uL RT-qPCR reactions, cell lysates were transferred to 384-well qPCR plates containing the master mix according to the table below. The plates were sealed, gently vortexed, and spun down before the run. The volumes were adjusted accordingly in some instances where the reaction was carried in 20 uL. The table below summarizes the components of the RT-qPCR reactions: […]

Target C = test: RT-qPCR canonical junction panel assay, Target C; conditions: gene panel, read-out: Target C IC50 (decrease in CJ mRNA levels)
Procedure: as §1, §2, §3, §4, §5, §6

SMN2 = test: RT-qPCR canonical junction panel assay, SMN2; conditions: gene panel, read-out: SMN2 IC50 (decrease in CJ mRNA levels)
Procedure: as §1, §2, §3, §4, §5, §6

HTT [2] = test: RT-qPCR splicing assay for HTT mRNA isoforms (canonical junction CJ and alternative junction AJ); conditions: A673 or K562 cell line, 24 hours treatment
Procedure: as §1, §2, §3, §4, §5, §6

[3] = decrease in CJ mRNA levels, read-out: HTT CJ AC50
[4] = increase in AJ mRNA, read-out: HTT AJ AC50

Structure (SMILES)	IC50 (HTT [1])	IC50 (Target C)	IC50 (SMN2)	AC50 (HTT [2]; [3])	AC50 (HTT [2]; [4])
Cc1cc(-c2nc3ncn(C4CCN(C)CC4)c(=O)c3s2)cc2cn(C)nc12 [Compound 234, 2-(2,7-dimethyl-2H-indazol-5-yl)-6-(1-methylpiperidin-4-yl)thiazolo[4,5-d]pyrimidin-7(6H)-one]	0.1 to 1 µM	1 to 10 µM	< 0.1 µM	0.1 to 1 µM	0.1 to 1 µM
Cc1cn2cc(-c3nn4c(=O)cc(N5CCN(C)C6(CC6)C5)nc4s3)cc(F)c2n1 [Compound 218, 2-(8-fluoro-2-methylimidazo[1,2-α]pyridin-6-yl)-7-(4-methyl-4,7-diazaspiro[2.5]octan-7-yl)-5H-[1,3,4]thiadiazolo[3,2-α]pyrimidin-5-one]	1 to 10 µM	1 to 10 µM	1 to 10 µM	1 to 10 µM	1 to 10 µM
Cc1cc(-c2nn3c(=O)cc(N4CCNCC4)nc3s2)cc2cn(C)nc12 [Compound 206, 2-(2,7-dimethyl-2H-indazol-5-yl)-7-(piperazin-1-yl)-5H-[1,3,4]thiadiazolo[3,2-α]pyrimidin-5-one]	1 to 10 µM	1 to 10 µM	0.1 to 1 µM	1 to 10 µM	1 to 10 µM
Cc1cn2cc(-c3nn4c(=O)cc(N5CCN(C)CC5)nc4s3)cc(F)c2n1 [Compound 217, 2-(8-fluoro-2-methylimidazo[1,2-α]pyridin-6-yl)-7-(4-methylpiperazin-1-yl)-5H-[1,3,4]thiadiazolo[3,2-α]pyrimidin-5-one]	1 to 10 µM	1 to 10 µM	1 to 10 µM	1 to 10 µM	1 to 10 µM
Cc1cn2nc(-c3cn4c(=O)cc(N5CCNC6(CC6)C5)nc4s3)cc(C)c2n1 [Compound 212, 2-(2,8-dimethylimidazo[1,2-b]pyridazin-6-yl)-7-(4,7-diazaspiro[2.5]octan-7-yl)-5H-thiazolo[3,2-α]pyrimidin-5-one]	1 to 10 µM	1 to 10 µM	1 to 10 µM	1 to 10 µM	1 to 10 µM
Cc1cn2cc(-c3nn4c(=O)cc(N(C)C5CC(C)(C)NC(C)(C)C5)nc4s3)cc(F)c2n1 [Compound 215, 2-(8-fluoro-2-methylimidazo[1,2-α]pyridin-6-yl)-7-(methyl(2,2,6,6-tetramethylpiperidin-4-yl)amino)-5H-[1,3,4]thiadiazolo[3,2-α]pyrimidin-5-one]	1 to 10 µM	1 to 10 µM	0.1 to 1 µM	1 to 10 µM	1 to 10 µM
Cc1cn2nc(-c3cc4ncn(C5CCN(C)CC5)c(=O)c4s3)cc(C)c2n1 [Compound 239, 6-(2,8-dimethylimidazo[1,2-b]pyridazin-6-yl)-3-(1-methylpiperidin-4-yl)thieno[3,2-d]pyrimidin-4(3H)-one]	1 to 10 µM	> 10 µM	< 0.1 µM	1 to 10 µM	1 to 10 µM
Cc1cc(-c2cc3ncn(C4CCNCC4)c(=O)c3s2)cc2cn(C)nc12 [Compound 236, 6-(2,7-dimethyl-2H-indazol-5-yl)-3-(piperidin-4-yl)thieno[3,2-d]pyrimidin-4(3H)-one]	< 0.1 µM	0.1 to 1 µM	< 0.1 µM	< 0.1 µM	0.1 to 1 µM
Cc1cc(-c2nn3c(=O)cc(N4CCN(C)CC4)nc3s2)cc2cn(C)nc12 [Compound 210, 2-(2,7-dimethyl-2H-indazol-5-yl)-7-(4-methylpiperazin-1-yl)-5H-[1,3,4]thiadiazolo[3,2-α]pyrimidin-5-one]	1 to 10 µM	1 to 10 µM	1 to 10 µM	1 to 10 µM	1 to 10 µM
Cc1cc(-c2cc(=O)n3cc(N4CCN(C)CC4)sc3n2)cc2cn(C)nc12 [Compound 109, 7-(2,7-dimethyl-2H-indazol-5-yl)-2-(4-methylpiperazin-1-yl)-5H-thiazolo[3,2-α]pyrimidin-5-one]	> 10 µM	> 10 µM	> 10 µM	> 10 µM	> 10 µM

The next lines start with results.

IC50 (HTT [1])	IC50 (Target C)	IC50 (SMN2)	Structure (SMILES)	AC50 (HTT [2]; [3])	AC50 (HTT [2]; [4])
1 to 10 µM	1 to 10 µM	1 to 10 µM	Cc1cn2cc(-c3cc(=O)n4nc(N5CCN(C)CC5)sc4n3)cc(F)c2n1 [Compound 159, 7-(8-fluoro-2-methylimidazo[1,2-α]pyridin-6-yl)-2-(4-methylpiperazin-1-yl)-5H-[1,3,4]thiadiazolo[3,2-α]pyrimidin-5-one]	1 to 10 µM	1 to 10 µM
< 0.1 µM	0.1 to 1 µM	< 0.1 µM	Cc1cn2cc(-c3nc4ncn(C5CCNCC5)c(=O)c4s3)cc(F)c2n1 [Compound 232, 2-(8-fluoro-2-methylimidazo[1,2-α]pyridin-6-yl)-6-(piperidin-4-yl)thiazolo[4,5-d]pyrimidin-7(6H)-one]	< 0.1 µM	< 0.1 µM
> 10 µM	> 10 µM	> 10 µM	Cc1cn2cc(-n3cnc4nc(N5CCNCC5)sc4c3=O)cc(C(F)(F)F)c2n1 [Compound 229, 6-(2-methyl-8-(trifluoromethyl)imidazo[1,2-α]pyridin-6-yl)-2-(piperazin-1-yl)thiazolo[4,5-d]pyrimidin-7(6H)-one]	> 10 µM	> 10 µM
> 10 µM	> 10 µM	> 10 µM	Cc1cc(-c2cc(=O)n3nc(N4CCN(C)CC4)sc3n2)cc2cn(C)nc12 [Compound 157]	> 10 µM	> 10 µM
1 to 10 µM	1 to 10 µM	1 to 10 µM	Cc1cn2cc(-c3cc(=O)n4nc(N5CCNC6(CC6)C5)sc4n3)cc(F)c2n1 [Compound 209, 7-(8-fluoro-2-methylimidazo[1,2-α]pyridin-6-yl)-2-(4,7-diazaspiro[2.5]octan-7-yl)-5H-[1,3,4]thiadiazolo[3,2-α]pyrimidin-5-one]	1 to 10 µM	1 to 10 µM
> 10 µM	> 10 µM	> 10 µM	Cn1cc2cc(-n3cnc4nc(N5CCNCC5)sc4c3=O)ccc2n1 [Compound 225, 6-(2-methyl-2H-indazol-5-yl)-2-(piperazin-1-yl)thiazolo[4,5-d]pyrimidin-7(6H)-one]	> 10 µM	> 10 µM
